Literature values as cited in patent US8207231B2, “Hepatitis A virucide” (Ecolab USA Inc., priority 1999, dated 2012).

System: hepatitis A
Conditions: 1 percent and 2 percent concentration

Cc1ccc(S(=O)(=O)[N-]Cl)cc1.[Na+] [chloramine T]
meets the requirements for activity against hepatitis A: meets the requirements for activity against hepatitis A
